Where two headings read alike, the source gives them in different places.
Experiments:
[1] = test system: Leukemia subpanel; test: cells; details: Homo sapiens
[2] = test system: OVCAR-3 (Ovarian cancer); test: cells; details: Homo sapiens
[3] = test system: Renal Cancer subpanel; test: NCI-60 screen, subpanel; details: Homo sapiens
[4] = test system: A549/ATCC (NSC lung cancer); test: NCI-60 screen (SRB, 48 h); details: Homo sapiens
[5] = test system: HOP-62 (NSC lung cancer); test: NCI-60 screen (SRB, 48 h); details: Homo sapiens
[6] = test system: NCI-H226 (NSC lung cancer); test: NCI-60 screen (SRB, 48 h); details: Homo sapiens
[7] = test system: NCI-H23 (NSC lung cancer); test: NCI-60 screen (SRB, 48 h); details: Homo sapiens
[8] = test system: NCI-H322M (NSC lung cancer); test: NCI-60 screen (SRB, 48 h); details: Homo sapiens
[9] = test system: NCI-H522 (NSC lung cancer); test: NCI-60 screen (SRB, 48 h); details: Homo sapiens
[10] = test system: COLO 205 (Colon cancer); test: NCI-60 screen (SRB, 48 h); details: Homo sapiens
[11] = test system: HCC-2998 (Colon cancer); test: NCI-60 screen (SRB, 48 h); details: Homo sapiens
[12] = test system: HCT-15 (Colon cancer); test: NCI-60 screen (SRB, 48 h); details: Homo sapiens
[13] = test system: SF-268 (CNS cancer); test: NCI-60 screen (SRB, 48 h); details: Homo sapiens
[14] = test system: SNB-19 (CNS cancer); test: NCI-60 screen (SRB, 48 h); details: Homo sapiens
[15] = test system: SK-MEL-5 (Melanoma); test: NCI-60 screen (SRB, 48 h); details: Homo sapiens
[16] = test system: UACC-257 (Melanoma); test: NCI-60 screen (SRB, 48 h); details: Homo sapiens
[17] = test system: UACC-62 (Melanoma); test: NCI-60 screen (SRB, 48 h); details: Homo sapiens
[18] = test system: IGROV1 (Ovarian cancer); test: NCI-60 screen (SRB, 48 h); details: Homo sapiens
[19] = test system: OVCAR-5 (Ovarian cancer); test: NCI-60 screen (SRB, 48 h); details: Homo sapiens
[20] = test system: OVCAR-8 (Ovarian cancer); test: NCI-60 screen (SRB, 48 h); details: Homo sapiens
[21] = test system: CAKI-1 (Renal cancer); test: NCI-60 screen (SRB, 48 h)
[22] = test system: TK-10 (Renal cancer); test: NCI-60 screen (SRB, 48 h); details: Homo sapiens
[23] = test system: PC-3 (Prostate cancer); test: NCI-60 screen (SRB, 48 h); details: Homo sapiens
[24] = test system: DU-145 (Prostate cancer); test: NCI-60 screen (SRB, 48 h); details: Homo sapiens
[25] = test system: MDA-MB-31/ATCC (Breast cancer); test: NCI-60 screen (SRB, 48 h); details: Homo sapiens
[26] = test system: HS 578T (Breast cancer); test: NCI-60 screen (SRB, 48 h); details: Homo sapiens
[27] = test system: panel of approximately 60 cancer cell lines; test: NCI-60 screen (SRB, 48 h), full panel

SMILES: CC1(C)CC[C@]23CC[C@]4(C)[C@H](CC[C@@H]5[C@@]6(C)CCCNC(C)(C)[C@@H]6CC[C@]54C)[C@H]2[C@H]1OC3 [Compound 7, Azepanoallobetulin]
- IC (TGI) ([1]; 48 h, read-out: TGI MG_MID): 5.49 µM
- GI50 ([1]; read-out: GI50 MG_MID): 1.96 µM
- CC50 ([1]; read-out: LC50 MG_MID): 94.3 µM
- GI50 ([2]; OVCAR-3): 1.62 µM
- IC (TGI) ([2]; OVCAR-3, 48 h, read-out: TGI): 3.1 µM
- CC50 ([2]; OVCAR-3, read-out: LC50): 5.94 µM
- IC (TGI) ([3]; 48 h, read-out: TGI MG_MID): 3.22 µM
- GI50 ([3]; read-out: GI50 MG_MID): 1.67 µM
- CC50 ([3]; read-out: LC50 MG_MID): 6.21 µM
- GI50 ([4]; A549): 1.81 µM
- IC (TGI) ([4]; A549, 48 h, read-out: TGI): 3.43 µM
- CC50 ([4]; A549, read-out: LC50): 6.5 µM
- GI50 ([5]; HOP-62): 1.91 µM
- IC (TGI) ([5]; HOP-62, 48 h, read-out: TGI): 3.75 µM
- CC50 ([5]; HOP-62, read-out: LC50): 7.34 µM
- GI50 ([6]; NCI-H226): 1.7 µM
- IC (TGI) ([6]; NCI-H226, 48 h, read-out: TGI): 3.47 µM
- CC50 ([6]; NCI-H226, read-out: LC50): 7.09 µM
- GI50 ([7]; NCI-H23): 1.76 µM
- IC (TGI) ([7]; NCI-H23, 48 h, read-out: TGI): 3.5 µM
- CC50 ([7]; NCI-H23, read-out: LC50): 6.95 µM
- GI50 [8]: 1.64 µM
- IC (TGI) ([8]; 48 h, read-out: TGI): 3.03 µM
- CC50 ([8]; read-out: LC50): 5.6 µM
- GI50 ([9]; NCI-H522): 1.9 µM
- IC (TGI) ([9]; NCI-H522, 48 h, read-out: TGI): 3.77 µM
- CC50 ([9]; NCI-H522, read-out: LC50): 7.49 µM
- GI50 ([10]; COLO 205): 1.28 µM
- IC (TGI) ([10]; COLO 205, 48 h, read-out: TGI): 2.68 µM
- CC50 ([10]; COLO 205, read-out: LC50): 5.61 µM
- GI50 ([11]; HCC 2998): 1.54 µM
- IC (TGI) ([11]; HCC 2998, 48 h, read-out: TGI): 2.97 µM
- CC50 ([11]; HCC 2998, read-out: LC50): 5.72 µM
- GI50 ([12]; HCT-15): 1.31 µM
- IC (TGI) ([12]; HCT-15, 48 h, read-out: TGI): 2.68 µM
- CC50 ([12]; HCT-15, read-out: LC50): 5.47 µM
- GI50 ([13]; SF-268): 2.04 µM
- IC (TGI) ([13]; SF-268, 48 h, read-out: TGI): 5.31 µM
- CC50 ([13]; SF-268, read-out: LC50): 31.5 µM
- GI50 ([14]; SNB-19): 1.85 µM
- IC (TGI) ([14]; SNB-19, 48 h, read-out: TGI): 3.35 µM
- CC50 ([14]; SNB-19, read-out: LC50): 6.07 µM
- GI50 ([15]; SK-MEL-5): 1.69 µM
- IC (TGI) ([15]; SK-MEL-5, 48 h, read-out: TGI): 3.06 µM
- CC50 ([15]; SK-MEL-5, read-out: LC50): 5.53 µM
- GI50 ([16]; UACC-257): 1.92 µM
- IC (TGI) ([16]; UACC-257, 48 h, read-out: TGI): 3.89 µM
- CC50 ([16]; UACC-257, read-out: LC50): 7.77 µM
- GI50 ([17]; UACC-62): 1.79 µM
- IC (TGI) ([17]; UACC-62, 48 h, read-out: TGI): 3.21 µM
- CC50 ([17]; UACC-62, read-out: LC50): 5.77 µM
- GI50 ([18]; IGROV-1): 1.79 µM
- IC (TGI) ([18]; IGROV-1, 48 h, read-out: TGI): 3.48 µM
- CC50 ([18]; IGROV-1, read-out: LC50): 6.78 µM
- GI50 ([19]; OVCAR-5): 1.6 µM
- IC (TGI) ([19]; OVCAR-5, 48 h, read-out: TGI): 3.04 µM
- CC50 ([19]; OVCAR-5, read-out: LC50): 5.8 µM
- GI50 ([20]; OVCAR-8): 1.87 µM
- IC (TGI) ([20]; OVCAR-8, 48 h, read-out: TGI): 3.66 µM
- Growth % of the Most Sensitive Cell Lines ([21]; CAKI-1, 1 dose 10 µM): −92.03%
- GI50 ([21]; Homo sapiens, CAKI-1): 1.62 µM
- IC (TGI) ([21]; Homo sapiens, CAKI-1, 48 h, read-out: TGI): 2.97 µM
- CC50 ([21]; Homo sapiens, CAKI-1, read-out: LC50): 5.45 µM
- GI50 ([22]; TK-10): 1.89 µM
- IC (TGI) ([22]; TK-10, 48 h, read-out: TGI): 3.61 µM
- CC50 ([22]; TK-10, read-out: LC50): 6.91 µM
- GI50 ([23]; PC-3): 1.61 µM
- IC (TGI) ([23]; PC-3, 48 h, read-out: TGI): 3.17 µM
- CC50 ([23]; PC-3, read-out: LC50): 6.25 µM
- GI50 ([24]; DU-145): 1.74 µM
- IC (TGI) ([24]; DU-145, 48 h, read-out: TGI): 3.23 µM
- CC50 ([24]; DU-145, read-out: LC50): 6 µM
- GI50 [25]: 1.66 µM
- IC (TGI) ([25]; 48 h, read-out: TGI): 3.2 µM
- CC50 ([25]; read-out: LC50): 6.17 µM
- GI50 [26]: 1.96 µM
- IC (TGI) ([26]; 48 h, read-out: TGI): 4.69 µM
- CC50 ([26]; read-out: LC50): 2.44 µM
- Positive Cytostatic Effect (cell lines with percent growth 0 to 50 / total) ([27]; 1 dose 10 µM): 16/59
- Positive Cytotoxic Effect (cell lines with percent growth < 0 / total) ([27]; 1 dose 10 µM): 41/58
- number of cancer cell lines the compound was active against ([27]; 1 dose 10 µM): 52 cell lines
- activity at 10 µM ([27]; Homo sapiens, 48 h, read-out: Mean Growth, %): -27.3%
- activity at 10 µM ([27]; Homo sapiens, 48 h, read-out: Range of Growth, %): -99.4 to 76.4%
- IC (TGI) ([27]; Homo sapiens, 48 h, read-out: TGI MG_MID60, average over all cell lines): 3.64 µM
- GI50 ([27]; Homo sapiens, read-out: GI50 MG_MID60): 1.68 µM
- GI50 ([27]; Homo sapiens, read-out: GI50 against all human tumor cell lines): < 3 µM
- GI50 ([27]; Homo sapiens, read-out: GI50 against the most sensitive cell lines): 0.2 to 0.94 µM
- CC50 ([27]; Homo sapiens, read-out: LC50 MG_MID60, average over all cell lines): 17.2 µM

Source: article PMC7914897, “Cytotoxic Potential of a-Azepano- and 3-Amino-3,4-SeCo-Triterpenoids” (International Journal of Molecular Sciences, 2021)
